Test results as given in patent US9271916B2, “Composition for reducing skin wrinkles including PDE5 inhibitor” (SK Chemicals Co., Ltd., priority 2011, dated 2016).
Structures can show the parent of a compound that is named as a salt.

Assays:
[1] = tested on: type I procollagen production in normal human dermal fibroblasts (NHDF, cell line 7F3802); experiment: Procollagen type I production in normal human dermal fibroblasts; assay type: cell-based; conditions: 48 hours, negative control 100.0±0.0%, p<0.01
Procedure: Effects by mirodenafil hydrochloride, test compound, on production of type I collagen was evaluated with normal human dermal fibroblasts.
Cell line 7F3802 was used as a normal human dermal fibroblast (hereinafter, ‘NHDF’). Frozen NHDF was thawed and subcultured, and passages 5 to 7 were used for this test.
L-Ascorbic acid (Sigma-Aldrich Co., U.S.A.) was used as a positive control because there are lots of comparative experimental data using l-ascorbic acid. L-Ascorbic acid has been reported to be effective in acceleration of collagen production when evaluating with fibroblasts. DMSO (Dimethyl sulfoxide) was used as a diluent.
(§1) 0.01 mL of aliquot was taken from 10 mM of mirodenafil hydrochloride stock solution, and 9.99 mL of DMSO was added to the aliquot to make 10,000 nM of sample. This sample was additionally diluted to 1,000 nM of concentration right before being used. 10,000 nM and 1,000 nM of solutions were diluted 100 times with serum-free medium to […], right before being applied.
For making a positive control, 20,000 μM (3.522 mg/mL) of 1-ascorbic acid was prepared by dissolving it with serum-free medium, and then the solution was diluted to 200 μM.
Two cell culture media were used in this experiment. Complete medium consisting of FBS (fetal bovine serum), Penicillin-Streptomycin (10,000 U/mL of penicillin and 10,000 ug of streptomycin) and DMEM/F12 (dulbecco's modified eagle's medium/F12) was used during subculture before test compound was applied, and then serum-free medium consisting of Penicillin-Streptomycin and DMEM (dulbecco's modified eagle's medium) was used.
Pre-treatment (cell culture and treatment of test compound) was performed as follows: After culturing in complete medium, 400 μl of NHDF was seeded into 48-well plates (1×10^5 cells/400 μl/well), and cultured at a condition of 37° C. and 5% CO2 incubator (MCO-20AIC, Sanyo, Japan) for 24 hours. After culture was completed, the remaining media were removed from each well. 500 μl of D-PBS (D-phosphate buffered saline) was added to each well to wash wells. […]

[2] = tested on: UVB-induced skin wrinkles; experiment: Wrinkle reduction in UVB-irradiated hairless mice; assay type: in vivo; conditions: for Wrinkle reduction (skin photographs): 10 mM (about 5%), applied twice daily for 14 days after wrinkle induction
Procedure: An examination was made as to whether the PDE5 inhibitors can substantially reduce skin wrinkles of animal models. Hairless mice, aged 7 weeks, were irradiated with UVB (290-320 nm, 312 nm) to induce wrinkles. The compound or the control was applied to each mouse and its influence on the induced wrinkles was evaluated. More specifically, the mice were irradiated with 60 mJ/cm^2 (1 minimal […] dose (MED)) for 3 days weekly during the first and second week after wrinkling, 120 mJ/cm^2 (2 MED) for 3 days during the third week after wrinkling, 180 mJ/cm^2 (3 MED) for 3 days during the fourth week after wrinkling, 240 mJ/cm^2 (4 MED) for 3 days weekly during the fifth to eighth week after wrinkling, and 240 mJ/cm^2 (4 MED) for 5 days weekly during the ninth to fifteenth week after wrinkling. During the sixteenth and seventeenth week after wrinkling, about 0.5 ml of squalene-OOH, an oxidation product of squalene by UV irradiation, was applied once using a brush to induce deeper wrinkles. Thereafter, the compound or the control was applied to each mouse twice daily for 14 days.

[3] = tested on: matrix metalloproteinase-1 (MMP-1) expression in normal human dermal fibroblasts; experiment: Inhibition of MMP-1 expression in normal human dermal fibroblasts; assay type: cell-based; conditions: NHDF, negative control 189.7±10.9%, p<0.01
Procedure: Effects by mirodenafil hydrochloride, test compound, on inhibition of matrix metalloproteinase-1 (MMP-1) expression was evaluated with normal human dermal fibroblasts.
(−)Epigallocatechin gallate (EGCG) (Sigma-Aldrich Co., U.S.A.) was used as a positive control because there are lots of comparative experimental data using the EGCG. EGCG has been reported to be effective in inhibition of MMP-1 expression when evaluating with fibroblasts. DMSO (Dimethyl sulfoxide) was used as a diluent.
as §1
For making a positive control, 10,000 μM (4.584 mg/mL) of EGCG was prepared by dissolving it with serum-free medium, and then the solution was diluted to 10 μM (0.0046 mg/mL).
BCA protein assay kit (Lot No.: KK140637, Pierce Biotechnology Inc., USA) was used for total protein analysis, and matrix metalloproteinase-1 (MMP-1), human, biotrak ELISA system kit (Lot No.: 398061, GE Healthcare, UK) was used for MMP-1 analysis.
The contents of MMP-1 in wells to which negative control, test compound or positive control was added were divided by the content of total protein. The adjusted content of MMP-1 was used to calculate “Inhibition rate of MMP-1 expression” with the following equation. This test was repeated three times. Inhibition rate of MMP-1 expression (%)=A/B×100
A: MMP-1 amount of sample or positive control
B: MMP-1 amount of negative control
The other materials and methods which were not mentioned in detail were similar to those of Example 3.

Compound: O=C1O[C@H]([C@@H](O)CO)C(O)=C1O [L-Ascorbic acid]
- Synthesis rate of procollagen type I ([1]; 35.2 μg/mL (200 μM)): 175.7±11.5%

Compound: CCCOc1ccc(S(=O)(=O)N2CCN(CCO)CC2)cc1-c1nc2c(CCC)cn(CC)c2c(=O)[nH]1.Cl.Cl [mirodenafil 2HCl]
- Wrinkle reduction (skin photographs) [2]: Wrinkle reduction was observed

Compound: CCCOc1ccc(S(=O)(=O)N2CCN(CCO)CC2)cc1-c1nc2c(CCC)cn(CC)c2c(=O)[nH]1 [mirodenafil free base, mirodenafil]
- Wrinkle reduction (skin photographs) [2]: Wrinkle reduction was observed

Compound: CCCOc1ccc(S(=O)(=O)N2CCN(CCO)CC2)cc1-c1nc2c(CCC)cn(CC)c2c(=O)[nH]1 [mirodenafil hydrochloride]
- Synthesis rate of procollagen type I ([1]; 10 nM): 149.7±12.4%
- Synthesis rate of procollagen type I ([1]; 100 nM): 189.8±6.4%
- MMP-1 expression (% of control) ([3]; 10 nM): 115.8±9.1%
- MMP-1 expression (% of control) ([3]; 100 nM): 97.9±8.5%

Compound: CC1=C(/C=C/C(C)=C/C=C/C(C)=C/C(=O)O)C(C)(C)CCC1 [retinoic acid]
- Formation and peeling of cornified layers of the skin ([2]; 0.05%, topical, twice then once daily): Cornified layers were formed and continuously peeled

Compound: (−)Epigallocatechin gallate [EGCG]
- MMP-1 expression (% of control) ([3]; 0.0046 mg/mL (10 μM)): 102.3±18.7%
